The source of these data is patent US20030073850A1, “4-Imidazole derivatives of benzyl and restricted benzyl sulfonamides, sulfamides, ureas, carbamates, and amides and their use” (priority 1998, published 2003).

What is called Ki is the dissociation constant of the complex between target and ligand, obtained from inhibition or displacement. Usually melting point stands for the temperature of the solid-liquid transition.

Structures can show the parent of a compound that is named as a salt.

The first series has as its target T1, α1b (hamster receptor expressed in mouse fibroblasts) (Mesocricetus auratus, UniProt P18841).
T1 construct: expressed in transfected cells; host or cells: mouse fibroblasts
T1 sequence (P18841 1-515): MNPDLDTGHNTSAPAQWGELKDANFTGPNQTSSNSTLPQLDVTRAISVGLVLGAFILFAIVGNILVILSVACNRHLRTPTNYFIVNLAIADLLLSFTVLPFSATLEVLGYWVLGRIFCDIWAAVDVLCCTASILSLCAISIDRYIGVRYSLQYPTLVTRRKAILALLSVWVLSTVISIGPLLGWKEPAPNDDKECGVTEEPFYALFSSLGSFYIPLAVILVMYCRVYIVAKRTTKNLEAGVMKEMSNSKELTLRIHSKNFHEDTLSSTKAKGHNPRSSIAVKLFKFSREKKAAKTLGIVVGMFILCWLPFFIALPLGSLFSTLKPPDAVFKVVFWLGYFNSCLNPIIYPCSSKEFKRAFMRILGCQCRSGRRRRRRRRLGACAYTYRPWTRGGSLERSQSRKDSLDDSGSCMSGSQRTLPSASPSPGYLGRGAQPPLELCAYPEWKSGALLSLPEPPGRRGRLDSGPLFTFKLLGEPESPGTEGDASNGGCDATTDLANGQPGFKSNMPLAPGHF
Kind of series: Radioligand binding, [3H]-prazosin, α1b. The settings on record: hamster receptor expressed in mouse fibroblasts, [3H]-prazosin; read-out: Radioligand Binding Ki α1b (Hamster). The method, then:
For purposes of discussing a, adrenoceptor subtypes, the IUPHAR convention of using lower case letters to define molecular clones and upper case letters to indicate pharmacologically defined adrenoceptors has been followed. Compounds of formula I were evaluated in radioligand binding assays specific for α1A (rat submaxillary gland), α1b (hamster receptor expressed in mouse fibroblasts) and α1d (rat receptor expressed in mouse fibroblasts) using [^3H]-prazosin as the radioligand as described in Knepper, et al. J. Pharm.
As for `CCn1cnc(C2CCCc3c2ccc(O)c3NS(C)(=O)=O)c1` (stereo not shown) [Example 6, N-[5-(1-ethyl-1H-imidazol-4-yl)-2-hydroxy-5,6,7,8-tetrahydro-1-naphthalenyl]methanesulfonamide, Hydrochloride], the Ki was found to be 100 µM.

`CCCn1cnc(C2CCCc3c2ccc(O)c3NS(C)(=O)=O)c1.Cl` (stereo not shown) [Example 7, N-[2-hydroxy-5-(1-propyl-1H-imidazol-4-yl)-5,6,7,8-tetrahydro-1-naphthalenyl]methanesulfonamide, Hydrochloride]: the Ki came to 100 µM. The same measure, in the same setting: the result for `O=C(O)/C=C\C(=O)O.O=S(=O)(CC(F)(F)F)Nc1cccc2c1CCCC2c1c[nH]cn1` (stereo not shown) [Example 20, N-[5,6,7,8-tetrahydro-5-(1H-imidazol-4-yl)-1-naphthalenyl]-2,2,2-trifluoroethanesulfonamide, Maleate] reads 10 µM; that for `Cc1ccc(NS(C)(=O)=O)c2c1C(c1c[nH]cn1)CCC2.O=C(O)/C=C\C(=O)O` (stereo not shown) [Example 23, N-[5,6,7,8-tetrahydro-5-(1H-imidazol-4-yl)-4-methyl-1-naphthalenyl]methanesulfonamide, Maleate], 10 µM; that for `O=S(=O)(Nc1cccc2c1CCCC2c1c[nH]cn1)C1CC1` (stereo not shown) [Example 27, N-[5,6,7,8-tetrahydro-(1H-imidazol-4-yl)-1-naphthalenyl]cyclopropanesulfonamide, Maleate], 10 µM. Same read-out and setting: in the case of `CS(=O)(=O)Nc1cccc2c1CCCCC2c1c[nH]cn1.O=C(O)/C=C\C(=O)O` (stereo not shown) [Example 38, N-[5-(1H-imidazol-4-yl)-6,7,8,9-tetrahydro-5H-benzo[a]cyclohepten-1-yl]methanesulfonamide, Maleate] it was 10 µM; in that of `CCS(=O)(=O)Nc1ccc(Cl)c2c1CCCC2c1c[nH]cn1.O=C(O)/C=C\C(=O)O` (stereo not shown) [Example 42, N-[4-chloro-5-(1H-imidazol-4-yl)-5,6,7,8-tetrahydro-1-naphthalenyl]ethanesulfonamide, Maleate], 10 µM. On the same count and under the same terms, the result for `CS(=O)(=O)Nc1ccc(Cl)c2c1CCCC2c1c[nH]cn1.O=C(O)/C=C\C(=O)O` (stereo not shown) [Example 43, N-[4-chloro-5-(1H-imidazol-4-yl)-5,6,7,8-tetrahydro-1-naphthalenyl]methanesulfonamide, Maleate] reads 10 µM. For “N-[5,6,7,8-tetrahydro-5-(1H-imidazol-4-yl)-1-naphthalenyl]-2-methylethanesulfonamide, Maleate [Example 18]”, the inhibition constant Ki was determined as 10 µM.

Test system in the next series: not given
Experiment: not given
Conditions: not given
With `Cc1cc(Cc2c[nH]cn2)c(C)c(NS(C)(=O)=O)c1`, the melting point was in the range of 197 to 199 °C. Same read-out and setting: in the case of `CCS(=O)(=O)Nc1c(C)ccc2c1CCCC2c1c[nH]cn1` (stereo not shown) it was 196 to 199 °C; in that of `CCS(=O)(=O)Nc1cc(Br)cc(Cc2c[nH]cn2)c1C`, 202 to 204 °C. For `CCS(=O)(=O)Nc1cc(Cc2c[nH]cn2)ccc1Cl`, the melting point lay in the range of 159 to 160 °C. As to `CCS(=O)(=O)Nc1cccc(Cc2c[nH]cn2)c1Cl`, the melting point was 182 to 184 °C. Still for that read-out and setting: the result for `CCS(=O)(=O)Nc1ccc(C)c(Cc2c[nH]cn2)c1` reads 194 to 196 °C; that for `CCS(=O)(=O)Nc1cc(Cc2c[nH]cn2)ccc1F`, 122 to 123 °C. With `CS(=O)(=O)Nc1cc(Cc2c[nH]cn2)ccc1O.Cl`, the melting point is 167 to 169 °C.

In turn, `CCS(=O)(=O)Nc1cc(Br)cc(Cc2c[nH]cn2)c1` yielded a melting point of 194 to 196 °C. In the case of `Cc1c(Cc2c[nH]cn2)cccc1NS(C)(=O)=O.O=C(O)/C=C\C(=O)O`, the melting point lay within 143 to 144 °C. Compound `CC(c1cccc(NS(C)(=O)=O)c1)c1c[nH]cn1.O=C(O)/C=C\C(=O)O` (stereo not shown) registered a melting point of 135 to 136 °C. Consider `CCS(=O)(=O)Nc1cccc(C(C)c2c[nH]cn2)c1.O=C(O)/C=C\C(=O)O` (stereo not shown), for which the melting point lay within 114 to 119 °C. `CS(=O)(=O)Nc1ccc(F)c(Cc2c[nH]cn2)c1.O=C(O)/C=C\C(=O)O` had a melting point of 146 to 147 °C. The compound `O=C(O)/C=C\C(=O)O.O=S(=O)(CC(F)(F)F)Nc1cccc(Cc2c[nH]cn2)c1` returned a melting point of 161 to 162 °C.

`CCS(=O)(=O)Nc1cccc(Cc2c[nH]cn2)c1OC` registered a melting point of 185 to 186 °C.

As for `CCS(=O)(=O)Nc1cccc(Cc2c[nH]cn2)c1O.O=C(O)/C=C\C(=O)O`, the melting point is 155 to 157 °C.

Compound `CC(c1cccc(NS(C)(=O)=O)c1)c1c[nH]cn1.Cl` (stereo not shown) showed a melting point of 195 to 196 °C. The same measure, in the same setting: the result for `CCS(=O)(=O)Nc1cc(Cl)cc(Cc2c[nH]cn2)c1Cl` reads 182 to 184 °C; that for `CCS(=O)(=O)Nc1cc(Cc2c[nH]cn2)ccc1C`, 140 to 152 °C. Still for that read-out and setting: in the case of `CCS(=O)(=O)Nc1cc(C)cc(Cc2c[nH]cn2)c1C` it was 167 to 169 °C; in that of `C=C(c1cccc(NS(C)(=O)=O)c1)c1c[nH]cn1` (as salt: maleic acid salt) [Example 92, N-{3-[1-(1H-imidazol-4-yl)vinyl]phenyl}methanesulfonamide], 167 to 170 °C. On the same count and under the same terms, the result for `O=S(=O)(CC(F)(F)F)Nc1cccc2c1OCCC2c1c[nH]cn1` (single isomer, unassigned) (as salt: maleic acid salt) [Example 88, 2,2,2-trifluoro-N-[4-(1H-imidazol-4-yl)-3,4-dihydro-2H-chromen-8-yl]ethanesulfonamide] reads 173 to 176 °C. Regarding `COc1ccc2c(c1NS(C)(=O)=O)CCCC2c1c[nH]cn1.Cl` (stereo not shown) [Example 1, N-[5-(1H-imidazol-4-yl)-2-methoxy-5,6,7,8-tetrahydro-1-naphthalenyl]methanesulfonamide hydrochloride], the melting point was in the range of 209 to 211 °C.

In turn, `CS(=O)(=O)Nc1c(O)ccc2c1CCCC2c1c[nH]cn1.Cl` (stereo not shown) [Example 2, N-[2-hydroxy-5-(1H-imidazol-4-yl)-5,6,7,8-tetrahydro-1-naphthalenyl]methanesulfonamide, Hydrochloride] returned a melting point of 135 to 137 °C. On the same count and under the same terms, the result for `Cc1nc(C2CCCc3c2ccc(O)c3NS(C)(=O)=O)c[nH]1.Cl` (stereo not shown) [Example 3, N-[2-hydroxy-5-(2-methyl-1H-imidazol-4-yl)-5,6,7,8-tetrahydro-1-naphthalenyl]methanesulfonamide, hydrochloride] reads 233 to 235 °C.

Compound `Cl.Cn1cncc1C1CCCc2c1ccc(O)c2NS(C)(=O)=O` (stereo not shown) [Example 4, N-[2-hydroxy-5-(1-methyl-1H-imidazol-5-yl)-5,6,7,8-tetrahydro-1-naphthalenyl]methanesulfonamide, Hydrochloride] had a melting point of 260 °C. Same read-out and setting: the result for `Cl.Cn1cnc(C2CCCc3c2ccc(O)c3NS(C)(=O)=O)c1` (stereo not shown) [Example 5, N-[2-hydroxy-5-(1-methyl-1H-imidazol-4-yl)-5,6,7,8-tetrahydro-1-naphthalenyl]methanesulfonamide Hydrochloride] reads 256 to 258 °C; that for `CCCn1cnc(C2CCCc3c2ccc(O)c3NS(C)(=O)=O)c1.Cl` (stereo not shown) [Example 7, N-[2-hydroxy-5-(1-propyl-1H-imidazol-4-yl)-5,6,7,8-tetrahydro-1-naphthalenyl]methanesulfonamide, Hydrochloride], 128 to 133 °C; that for `CS(=O)(=O)Nc1cccc2c1CCC[C@H]2c1c[nH]cn1` [Example 9, (+)-N-[(5R)-5-(1H-imidazol-4-yl)-5,6,7,8-tetrahydro-1-naphthalenyl]methanesulfonamide], 118 to 123 °C.

Regarding `CCS(=O)(=O)Nc1cccc2c1CCCC2c1c[nH]cn1.O=C(O)/C=C\C(=O)O` (stereo not shown) [Example 12, N-[5-(1H-imidazol-4-yl)-5,6,7,8-tetrahydro-1-naphthalenyl]ethanesulfonamide Maleate], the melting point was 129 to 132 °C. Same read-out and setting: the result for `CS(=O)(=O)Nc1cccc2c1OCCC2c1c[nH]cn1.O=C(O)/C=C\C(=O)O` (stereo not shown) [Example 19, N-[4-(1H-imidazol-4-yl)-3,4-dihydro-2H-chromen-8-yl]methanesulfonamide, Maleate] reads 172 to 174 °C; that for `O=C(O)/C=C\C(=O)O.O=S(=O)(CC(F)(F)F)Nc1cccc2c1CCCC2c1c[nH]cn1` (stereo not shown) [Example 20, N-[5,6,7,8-tetrahydro-5-(1H-imidazol-4-yl)-1-naphthalenyl]-2,2,2-trifluoroethanesulfonamide, Maleate], 138 to 140 °C; that for `CS(=O)(=O)Nc1cccc2c1CCC2c1c[nH]cn1.O=C(O)/C=C\C(=O)O` (stereo not shown) [Example 22, N-[1-(1H-imidazol-4-yl)-2,3-dihydro-1H-inden-4-yl]methanesulfonamide, Maleate], 168 to 169 °C. On the same count and under the same terms, in the case of `Cc1ccc(NS(C)(=O)=O)c2c1C(c1c[nH]cn1)CCC2.O=C(O)/C=C\C(=O)O` (stereo not shown) [Example 23, N-[5,6,7,8-tetrahydro-5-(1H-imidazol-4-yl)-4-methyl-1-naphthalenyl]methanesulfonamide, Maleate] it was 192 to 195 °C; in that of `CS(=O)(=O)Nc1cccc2c1CCCCC2c1c[nH]cn1.O=C(O)/C=C\C(=O)O` (stereo not shown) [Example 38, N-[5-(1H-imidazol-4-yl)-6,7,8,9-tetrahydro-5H-benzo[a]cyclohepten-1-yl]methanesulfonamide, Maleate], 162 to 164 °C; in that of `CCS(=O)(=O)Nc1ccc(Cl)c2c1CCCC2c1c[nH]cn1.O=C(O)/C=C\C(=O)O` (stereo not shown) [Example 42, N-[4-chloro-5-(1H-imidazol-4-yl)-5,6,7,8-tetrahydro-1-naphthalenyl]ethanesulfonamide, Maleate], 151 to 155 °C. The same measure, in the same setting: in the case of `CS(=O)(=O)Nc1ccc(Cl)c2c1CCCC2c1c[nH]cn1.O=C(O)/C=C\C(=O)O` (stereo not shown) [Example 43, N-[4-chloro-5-(1H-imidazol-4-yl)-5,6,7,8-tetrahydro-1-naphthalenyl]methanesulfonamide, Maleate] it was 175 to 178 °C; in that of `CCS(=O)(=O)Nc1cccc(/C(=C/OC)c2c[nH]cn2)c1.O=C(O)/C=C\C(=O)O` [Example 46, N-{3-[(Z)-1-(1H-imidazol-4-yl)-2-methoxyethenyl]phenyl}ethanesulfonamide, Maleate], 146 to 148 °C. Regarding `CS(=O)(=O)Nc1cccc2c1CCC=C2c1c[nH]cn1.O=C(O)/C=C\C(=O)O` [Example 47, N-[5-(1H-imidazol-4-yl)-7,8-dihydro-1-naphthalenyl]methanesulfonamide, Maleate], the melting point lay in the range of 161 to 165 °C.

Turning to `CCC(O)(c1cccc(NS(=O)(=O)CC)c1)c1c[nH]cn1` (stereo not shown) [Example 55, N-[3-(1-hydroxy-1-(1H-imidazol-4-yl)propyl)phenyl]ethanesulfonamide], the melting point lay within 120 to 124 °C.
